Reference: US20120010290A1, “Methods of Treating an Overweight or Obese Subject” (priority 2008, published 2012)

Test system: diet-induced obese C57BL/6NTac mice
Assay: Weight loss study in diet-induced obese mice
Format: in vivo
Settings: oral 1.0 mg/kg in 10% gelucire in deionised water, once a day for 7 days; C57BL/6NTac mice on 60% fat diet; after 7 days
Protocol: A weight loss study was conducted in obese mice. The mice in this study were not genetically obese, but prior to and during the study, obesity was induced by a high-fat diet. Twelve week-old C57BL/6NTac mice, maintained on a 60% fat diet prior to and during the study, were separated into two groups, with eight animals per group. Average body weight of the mice was approximately 47 g at the start of the study.
One group was orally administered 1.0 mg/kg of compound H in 10% gelucire in deionised water, and one group was administered 10% gelucire in deionised water (vehicle). Compound H is as follows:
Mice received administrations once a day for 7 days. After 7 days, the average weight loss of mice administered compound H was 13.2%.

## CCN(CC)C/C=C\c1ccccc1S(=O)(=O)Nc1ccc2c(c1C(=O)O)CCCC2 [compound H]
  average weight loss: 13.2%
